Results: patent US8361516B2, “Composition comprising sarsasapogenin” (priority 2006, dated 2013)

Tests used:
human adipocytes = assay: Stimulation of lipid uptake in human adipocytes; assay type: cell-based
From the text: 4. Stimulation of Lipid Uptake by 3T3-L1 Cells and Human Adipocytes
The results were reproduced using human adipocytes.

3T3-L1 cells [1] = assay: Stimulation of differentiation: G3PDH activity; assay type: cell-based; conditions: mean for n = 3 tests
Procedure: Principle: after an in vivo proliferation phase, the pre-adipocytes begin differentiating under the influence of specific endogenous factors (in particular, glucocorticoids and insulin). In vitro, those factors are included in the conventional cocktail used to trigger differentiation.
The maintenance or amplification of differentiation when the cells are subsequently cultured in a simple maintenance medium is determined by assay of glycerol-3-phosphate dehydrogenase, G3PDH (or GPDH). The enzyme is involved in energy metabolism. Its activity regularly increases through the differentiation process.
Protocol: as previously, 3T3-L1 cells were cultured to confluence, then underwent differentiation induction with the conventional cocktail and were incubated in the absence or presence of sarsasapogenin at various concentrations. After 3 days of incubation, the differentiation cocktail was replaced by culture maintenance medium in the presence or absence of sarsasapogenin. After 3 days of incubation, the cell layers were harvested and G3PDH activity determined.

3T3-L1 cells [2] = assay: Stimulation of lipid uptake, red oil staining with image analysis; assay type: cell-based; conditions: mean for n = 3 tests
Procedure: Principle: adipocyte differentiation is a decisive stage in the transformation of pre-adipocytes into lipid-laden mature adipocytes. The intracellular accumulation of lipids is determined by conventional red oil staining (neutral lipid marker). The stained lipids can then be quantified under the microscope.
Protocol: 3T3-L1 cells were inoculated and cultured for 4 days (multiplication). This was followed by a differentiation phase (incubation with the conventional differentiation cocktail) and a maturation phase (maturation cocktail) in the absence or presence of sarsasapogenin at various concentrations.
At the end of that period, the cells were washed, fixed and stained with red oil. The cell layers were digitally photographed and the red staining quantified by image analysis.
The percentage red oil areas, shown in table 1, were expressed relative to the untreated control cells and the test was validated by comparison with pioglitazone (10 μM), the positive control for differentiation stimulation.

mature adipocytes = assay: Gene expression profile, effect on mature adipocytes (CodeLink Whole Genome chips); assay type: cell-based, Human; conditions: mature adipocytes exposed 24 h
Procedure: (§1) Two studies were conducted: one addressed the effect of sarsasapogenin on differentiation using a pre-adipocyte culture; the other addressed the effect of sarsasapogenin on mature adipocytes.
(§2) Human pre-adipocyte cells were inoculated and cultured (multiplication) for 5 days. Then: • either the cells were exposed to the induction medium in the presence or absence of sarsasapogenin for 8 or 24 h before culture arrest (study of the effect of sarsasapogenin on differentiation), • or the cells were exposed to the differentiation medium for 10 days, yielding mature adipocytes, then exposed or not exposed to sarsasapogenin for 24 h (study of the effect of sarsasapogenin on maturation).
(§3) At each time point, the mRNA of the cells was extracted using a commercially available kit (Roche Kit V6—Extraction of total RNA). In parallel, solvent controls were run and subjected to extraction in the same manner. The expression profile of the gene sequences was determined using CodeLink Whole Genome chips for each sample of RNA purified. The values obtained were normalized on the controls.

[3] = tested on: Human pre-adipocyte cells; assay: Gene expression profile, effect on differentiation (pre-adipocyte culture, CodeLink Whole Genome chips); assay type: cell-based
Procedure: as §1, §2, §3

3T3-L1 cells [4] = assay: Residual proliferation capability during the differentiation phase (Hoechst test); assay type: cell-based; conditions: 3 days with differentiation cocktail
Procedure: The pre-adipocytes undergo a multiplication phase (clonal expansion) before beginning to differentiate.
A product stimulating proliferation would thus enable adipocytes that have already entered the differentiation phase to maintain a replication capability.
Protocol: 3T3-L1 cells were inoculated and cultured to confluence over 4 days (clonal expansion). The conventional differentiation cocktail was added to the culture and the cells were incubated in the absence (control) or in the presence of rising concentrations of sarsasapogenin for 3 days. Following incubation, the cell layers were harvested and subjected to a Hoechst test to quantify cell proliferation vs. the proliferation of the control cells and the cells incubated in the presence of pioglitazone (positive control).

[5] = time points 8 and 24 h of differentiation
[6] = values normalized on the controls, time point not stated

C[C@H]1CC[C@@]2(OC1)O[C@H]1C[C@H]3[C@@H]4CC[C@@H]5C[C@@H](O)CC[C@]5(C)[C@H]4CC[C@]3(C)[C@H]1[C@@H]2C [Sarsasapogenin, (3β, 5β, 25-S)-Spirostan-3-ol]
lipid incorporation results in human adipocytes (human adipocytes): reproduced
Change in G3PDH activity vs. control (%) (3T3-L1 cells [1]; 5 μM): +103% (p < 0.01)
Change in G3PDH activity vs. control (%) (3T3-L1 cells [1]; 10 μM): +201% (p < 0.01)
Change in G3PDH activity vs. control (%) (3T3-L1 cells [1]; 15 μM): +429% (p < 0.01)
Change in G3PDH activity vs. control (%) (3T3-L1 cells [1]; 17.5 μM): +535% (p < 0.01)
% change in red oil content vs. control (3T3-L1 cells [2]; 5 μM): +135%
% change in red oil content vs. control (3T3-L1 cells [2]; 10 μM): +274%
% change in red oil content vs. control (3T3-L1 cells [2]; 17.5 μM): +492%
% change in red oil content vs. control (3T3-L1 cells [2]; 17.5 μM, listed as sarsasapogenin): greater than 492%
status of gene p21 (mature adipocytes): activated status of gene p21 was maintained
activation of the gene coding for protein MNT (MAX binding protein) ([3]; after 8 and 24 h of differentiation, normalized on solvent controls): induces activation
cyclin D3 gene up-regulation ([3]; normalized on the controls): markedly up-regulated
gene coding for Kruppel-like factor 5 (KLF5) ([3]; normalized on the controls): increase
induction of NPTXR / pentraxin-related gene ([3]; time point 24 h, normalized on the controls): > 7
SLC2A5/GLUT5 gene activation [3, 5]: activated
gene RAFTLIN activation [3, 5]: activated
induction of adipose differentiation-related protein (ADRP) or adipophilin ([3]; values normalized on the controls, study and time point not stated): > 4
gene COPS3 up-regulation [3, 6]: > 5
gene COPS5 up-regulation [3, 6]: > 5
increase in KLK10 (kallikrein) [3, 6]: > 10
Proliferation vs. Control (3T3-L1 cells [4]; 5 μM): +20.5% (p < 0.01)
Proliferation vs. Control (3T3-L1 cells [4]; 10 μM): +31.6% (p < 0.01)
Proliferation vs. Control (3T3-L1 cells [4]; 20 μM): +35.2% (p < 0.01)

CCc1ccc(CCOc2ccc(CC3SC(=O)NC3=O)cc2)nc1 (stereo not shown) [pioglitazone, reference compound]
% change in red oil content vs. control (3T3-L1 cells [2]; 10 μM): +359%
Proliferation vs. Control (3T3-L1 cells [4]; 10 μM): +49% (p < 0.01)
